Like-named read-outs stand apart in the source and are kept apart here.
How the values were obtained:
[1] = tested on: human trabecular meshwork cells; assay: Induction of PGE2 synthesis in cultured human trabecular meshwork cells (14C-arachidonic acid, TLC); assay type: cell-based; conditions: 10 ng/ml each; for % of total CPM in PGE2 fraction (mean ± std dev): 17 hours then 14C-arachidonic acid for 4 hours
Procedure: Primary human trabecular meshwork cells were grown in culture according to the method of Weinreb, et al. from a donor. Cells (passage 5) were seeded into 12-well plates and grown until they just reached confluency, with culture medium replacement every 3-4 days. Triplicate wells of cells were then exposed to interleukin-1 beta (10 ng/ml final), TGF-beta 1 (10 ng/ml final) or both in 1 ml of Ham's F-10 Nutrient Mixture (Gibco-BRL), containing 2 mM L-glutamine and 0.4 mg/ml bovine serum albumin (Sigma Chemical Co.). Control cells received medium devoid of IL-1β and TGF-β1. Cells were then incubated in a 37° C., 5% CO2, humidified incubator for 17 hours. ^14C-arachidonic acid (300,000 dpm) was added to each well, and the cells were returned to the incubator for an additional 4 hours. A modified Bligh & Dyer lipid extraction [Can. J. Biochem. Physiol. 37,911 (1959)] was then performed on the cells and supernatants. An aliquot of the extracted samples and fatty acid standards were spotted on a moderate hardness silica gel thin-layer chromatography plate (Alltech K5, 20×20 cm, 250 μm thick). The plate was developed in prostaglandin TLC solvent (11:5:2:10 ethyl acetate: 2,2,4-trimethylpentane: acetic acid: distilled water), air-dried, and standard bands were visualized with vaporization of iodine crystals. Each lane on the plate was divided into segments based upon the position of the standards, and each segment was scraped off of the plate with a razor blade into a glass scintillation vial. Opti-fluor scintillation cocktail (Packard) was added to each vial, and the samples were counted on a beta scintillation counter. The amount of each fraction was calculated as a percentage of total counts per minute (CPM) from that sample.

[2] = tested on: cultured trabecular-meshwork cells; conditions: cited from earlier work
[3] = tested on: fibroblasts; conditions: cited from earlier work
[4] = tested on: human corneal fibroblasts; assay: Induction of prostaglandin synthesis in cultured human corneal fibroblasts (enzyme immunoassay of conditioned medium); assay type: cell-based; conditions: 10 ng/ml
Procedure: Primary human corneal fibroblasts were grown in culture from freshly denuded corneal stromal tissue from a donor. Cells (passage 4) were seeded into 12-well plates and grown to 80% confluency. Selected cells were then exposed to Interleukin-1 alpha (10 ng/ml final) in Ham's F-10 Nutrient mixture (HyClone Corporation) containing 10% fetal bovine serum by medium replacement in the wells. Control cells received medium devoid of this inflammatory cytokine. Cells were then incubated in a 37° C., 5% CO2, humidified incubator for 24 hours. Conditioned medium was then removed, centrifuged to remove any cellular debris (3 minutes at 2600 rpm and 4° C.), and analyzed for PGE2 and PGF2α, levels in the medium using specific enzyme immunoassay kits (Cayman Scientific). Cells in each well were counted, and prostaglandin levels normalized to the cell count for the respective wells.

[5] = 24 hours, conditioned medium, normalized to cell count

With “TGF-β1: Transforming Growth Factor beta 1, prostaglandin upregulating agent” the “increase in PGE2 synthesis over non-treated control” value [1] was 74% and the “% of total CPM in PGE2 fraction (mean ± std dev)” value [1] was 3.01 ± 0.38%.

In the case of `NCCc1c[nH]cn1` [histamine], the “effect on PGE2 synthesis” value [2] is given as “stimulate PGE2 synthesis”.

For `CCCCC/C=C\C\C=C/C=C/C=C/[C@@H](SC[C@H](NC(=O)CC[C@H](N)C(=O)O)C(=O)NCC(=O)O)[C@@H](O)CCCC(=O)O` [leukotriene C4], the “effect on PGE2 synthesis” value [2] is listed as “stimulate PGE2 synthesis”.

For PDGF, the “stimulation of PGE2 synthesis” value [3] is given as 10-15 fold and the “stimulation of PGE2 synthesis” value ([3]; in the presence of exogenous arachidonic acid) is given as 28 fold.

In the case of “INTERLEUKIN-1α: inflammatory cytokine Interleukin-1 alpha”, the “PGE2 produced per 100,000 cells in 24 hours (mean ± std dev)” value [4, 5] is reported as 48,736 ± 3597 PICOGRAMS, the “PGF2α produced per 100,000 cells in 24 hours (mean ± std dev)” value [4, 5] is reported as 1704 ± 367 PICOGRAMS and the “elevation of the level of PGE2” value ([4]; versus unstimulated cells) is reported as greater than 47 fold. For the same compound, the “elevation of the level of PGF2α” value ([4]; versus unstimulated cells) was greater than 3 fold.

In the case of “IL-1β: interleukin-1 beta, prostaglandin upregulating agent (Genzyme)”, the “increase in PGE2 synthesis over non-treated control” value [1] is reported as 440% and the “% of total CPM in PGE2 fraction (mean ± std dev)” value [1] is reported as 9.34 ± 0.70%.

For `CNc1ccc2oc(C[C@H]3O[C@@]4(CC[C@H]3C)O[C@H]([C@H](C)C(=O)c3ccc[nH]3)[C@H](C)C[C@H]4C)nc2c1C(=O)O` [lonophore A23187], the “effect on PGE2 synthesis” value [2] is given as “stimulate PGE2 synthesis”.

In the case of `CCCCC/C=C\C/C=C\C/C=C\C/C=C\CCCC(=O)O` [arachidonic acid], the “effect on PGE2 synthesis” value [2] is listed as “stimulate PGE2 synthesis”.

— patent US6376541B1, “Upregulation of endogenous prostaglandins to lower intraocular pressure” (Alcon Manufacturing, Ltd., priority 1998, dated 2002)
